Results: patent US6555341B1, “Human theta subunit of the GABAa receptor” (Merck Sharp & Dohme Ltd., priority 1997, dated 2003)

Legend:
[1] = target: T1, GABAA receptor subunit combination α2β1γ1 (Homo sapiens, UniProt P18505+P47869); test: Whole cell patch-clamp of HEK 293 cells transiently transfected with human GABA-A receptors, GABA concentration-response; format: cell-based; settings: HEK 293 cells transiently expressing α2β1γ1; GABA concentration-response curve
T1 construct: expressed in transfected cells; host or cells: HEK 293 cells, transient, calcium phosphate precipitation
T1 sequence (P47869 29-451): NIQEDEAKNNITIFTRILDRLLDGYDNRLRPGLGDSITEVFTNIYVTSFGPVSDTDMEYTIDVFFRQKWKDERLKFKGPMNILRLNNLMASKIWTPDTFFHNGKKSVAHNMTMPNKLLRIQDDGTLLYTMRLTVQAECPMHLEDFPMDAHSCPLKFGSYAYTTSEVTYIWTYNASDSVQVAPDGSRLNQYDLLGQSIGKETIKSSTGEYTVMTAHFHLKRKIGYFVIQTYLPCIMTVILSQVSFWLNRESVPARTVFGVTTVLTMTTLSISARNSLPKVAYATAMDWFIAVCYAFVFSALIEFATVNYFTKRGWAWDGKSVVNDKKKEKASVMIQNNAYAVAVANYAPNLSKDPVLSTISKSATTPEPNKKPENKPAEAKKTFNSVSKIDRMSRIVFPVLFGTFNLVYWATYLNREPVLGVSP
T1 sequence (P18505 26-474): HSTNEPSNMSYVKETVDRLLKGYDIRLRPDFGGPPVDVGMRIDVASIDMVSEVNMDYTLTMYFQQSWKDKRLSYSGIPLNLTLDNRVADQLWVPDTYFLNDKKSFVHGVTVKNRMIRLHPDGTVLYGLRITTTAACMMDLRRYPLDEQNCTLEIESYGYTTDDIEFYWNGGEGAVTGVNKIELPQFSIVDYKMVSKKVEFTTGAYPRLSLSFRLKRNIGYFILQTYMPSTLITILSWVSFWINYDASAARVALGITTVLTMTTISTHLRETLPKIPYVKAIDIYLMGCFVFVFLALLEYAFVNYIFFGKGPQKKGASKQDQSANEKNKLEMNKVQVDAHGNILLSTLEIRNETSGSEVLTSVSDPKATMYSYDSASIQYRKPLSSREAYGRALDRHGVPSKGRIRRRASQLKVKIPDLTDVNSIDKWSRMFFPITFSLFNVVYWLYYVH
T1 sequence (Q8N1C3 36-465 partner): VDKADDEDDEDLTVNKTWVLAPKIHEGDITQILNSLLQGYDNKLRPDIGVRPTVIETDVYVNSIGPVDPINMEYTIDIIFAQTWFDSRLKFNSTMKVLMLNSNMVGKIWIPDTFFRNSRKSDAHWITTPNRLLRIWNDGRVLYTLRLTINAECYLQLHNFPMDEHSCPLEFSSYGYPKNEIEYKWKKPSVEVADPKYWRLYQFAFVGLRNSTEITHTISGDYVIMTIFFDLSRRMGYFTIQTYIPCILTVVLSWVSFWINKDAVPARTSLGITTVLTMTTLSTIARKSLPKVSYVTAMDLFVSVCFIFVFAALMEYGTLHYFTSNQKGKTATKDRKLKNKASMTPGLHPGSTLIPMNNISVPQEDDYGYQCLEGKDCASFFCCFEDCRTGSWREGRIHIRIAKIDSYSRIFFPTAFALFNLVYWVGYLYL
Description: (§1) Experiments were performed on HEK 293 cells transiently transfected with human cDNA combinations α2β1 γ1, and α2β1θγ1 (4 μgs of cDNA total per cover-slip) using calcium phosphate precipitation (Chen and Okayama, 1988) as previously described (Hadingham et al, 1993). Glass cover-slips containing the cells in a monolayer culture were transferred to a perspex chamber on the stage of Nikon Diaphot inverted microscope. Cells were continuously perfused with a solution containing 124 mM NaCl, 2 mM KCl, 2 mM CaCl2, 1 mM MgCl2, 1.25 mM KH2PO4, 25 mM NaHCO3, 11 mM D-glucose, at pH 7.2, and observed using phase-contrast optics. Patch-pipettes were pulled with an approximate tip diameter of 2 μm and a resistance of 4MΩ with borosilicate glass and filled with 130 mM CsCl, 10 mM HEPES, 10 mM EGTA, 3 mM Mg^+-ATP, pH adjusted to 7.3 with CsOH. Cells were patch-clamped in whole-cell mode using an Axopatch 200B patch-clamp amplifier. Drug solutions were applied by a double-barrelled pipette assembly, controlled by a stepping motor attached to a Prior manipulator, enabling rapid equilibration around the cell. […] Curves were fitted using a non-linear square-fitting program to the equation f(x)=BMAX/[1+(EC50/x)^n] where x is the drug concentration, EC50 is the concentration of drug eliciting a half-maximal response and n is the Hill coefficient. EC50's were analysed by unpaired students t-test.

[2] = target: T2, GABAA receptor subunit combination α2β1θγ1 (Homo sapiens, UniProt P18505+P47869+Q9UN88); test: as above; format: cell-based; settings: HEK 293 cells transiently expressing α2β1θγ1; GABA concentration-response curve
T2 construct: expressed in transfected cells; host or cells: HEK 293 cells, transient, calcium phosphate precipitation
Description: as §1

T2 sequence (Q9UN88 22-632, one chain of several): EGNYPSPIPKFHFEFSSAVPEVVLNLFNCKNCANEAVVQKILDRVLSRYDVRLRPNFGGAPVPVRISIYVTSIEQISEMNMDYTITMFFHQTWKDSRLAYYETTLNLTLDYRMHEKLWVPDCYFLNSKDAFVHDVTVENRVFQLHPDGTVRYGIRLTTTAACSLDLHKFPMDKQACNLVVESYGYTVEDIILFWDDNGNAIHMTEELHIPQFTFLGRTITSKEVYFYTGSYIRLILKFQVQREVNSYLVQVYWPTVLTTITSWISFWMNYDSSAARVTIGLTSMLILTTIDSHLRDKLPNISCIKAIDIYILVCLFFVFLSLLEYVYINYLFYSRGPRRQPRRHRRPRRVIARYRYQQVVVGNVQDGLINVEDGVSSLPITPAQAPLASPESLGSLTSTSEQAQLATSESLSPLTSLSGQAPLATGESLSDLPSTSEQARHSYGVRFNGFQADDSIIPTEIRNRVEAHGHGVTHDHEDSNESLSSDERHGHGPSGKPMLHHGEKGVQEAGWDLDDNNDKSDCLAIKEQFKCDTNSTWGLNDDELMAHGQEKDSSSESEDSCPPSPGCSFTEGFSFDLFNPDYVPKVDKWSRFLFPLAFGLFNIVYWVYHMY

Slope (Hill coefficient) [1]: 1.6 ± 0.2 | Slope (Hill coefficient) [2]: 1.5 ± 0.1
SMILES: NCCCC(=O)O [GABA, Gamma-amino butyric acid]
